In the supplement of paper PMC10307832:

Tests used:
Experiment in all cases: relative viability (nuclei count vs DMSO), 5 days (fraction); higher = more cells survive
Selisistat + Linsitinib = compound: C1CC(C2=C(C1)C3=C(N2)C=CC(=C3)Cl)C(=O)N [Selisistat] + C[C@]1(O)C[C@@H](c2nc(-c3ccc4ccc(-c5ccccc5)nc4c3)c3c(N)nccn32)C1 [Linsitinib] (partner 1 µM)
Summary of the method: (§1)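 For relative viability, nuclei counts in treated wells were divided by those in vehicle wells. Lung cancer cell lines had been pin-tool dosed in 1536-well plates the day after seeding and cultured for 5 days, then fixed and stained in one step (final 0.05% Triton X-100, 1% formaldehyde, 1 ug/ml Hoechst) and imaged at 4×. Doses were one drug alone or a fixed anchor-drug dose plus five library-drug doses (not always all listed) in √10 steps, and values are duplicate-plate medians.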

Serdemetan + Crizotinib = compound: c1ccc2c(CCNc3ccc(Nc4ccncc4)cc3)c[nH]c2c1 [Serdemetan] + C[C@@H](Oc1cc(-c2cnn(C3CCNCC3)c2)cnc1N)c1c(Cl)ccc(F)c1Cl [Crizotinib] (partner 1 µM)
Summary of the method: as §1

Serdemetan + Pemetrexed = compound: c1ccc2c(CCNc3ccc(Nc4ccncc4)cc3)c[nH]c2c1 [Serdemetan] + Nc1nc2[nH]cc(CCc3ccc(C(=O)N[C@@H](CCC(=O)O)C(=O)O)cc3)c2c(=O)[nH]1 [Pemetrexed] (partner 0.2 µM)
Summary of the method: as §1

Serdemetan + Olaparib = compound: c1ccc2c(CCNc3ccc(Nc4ccncc4)cc3)c[nH]c2c1 [Serdemetan] + O=C(c1cc(Cc2n[nH]c(=O)c3ccccc23)ccc1F)N1CCN(C(=O)C2CC2)CC1 [Olaparib] (partner 8 µM)
Summary of the method: as §1

| Cell Line | relative viability (Selisistat + Linsitinib; first compound 0.4 µM) | relative viability (Selisistat + Linsitinib; first compound 1.265 µM) | relative viability (Selisistat + Linsitinib; first compound 4 µM) | relative viability (Selisistat + Linsitinib; first compound 12.65 µM) | relative viability (Selisistat + Linsitinib; first compound 40 µM) | relative viability (Serdemetan + Crizotinib; first compound 0.04 µM) | relative viability (Serdemetan + Crizotinib; first compound 0.1265 µM) | relative viability (Serdemetan + Crizotinib; first compound 0.4 µM) | relative viability (Serdemetan + Crizotinib; first compound 1.265 µM) | relative viability (Serdemetan + Crizotinib; first compound 4 µM) | relative viability (Serdemetan + Pemetrexed; first compound 0.04 µM) | relative viability (Serdemetan + Pemetrexed; first compound 0.1265 µM) | relative viability (Serdemetan + Pemetrexed; first compound 0.4 µM) | relative viability (Serdemetan + Pemetrexed; first compound 1.265 µM) | relative viability (Serdemetan + Pemetrexed; first compound 4 µM) | relative viability (Serdemetan + Olaparib; first compound 0.04 µM) | relative viability (Serdemetan + Olaparib; first compound 0.1265 µM) | relative viability (Serdemetan + Olaparib; first compound 0.4 µM) | relative viability (Serdemetan + Olaparib; first compound 1.265 µM) | relative viability (Serdemetan + Olaparib; first compound 4 µM) |
| --- | --- | --- | --- | --- | --- | --- | --- | --- | --- | --- | --- | --- | --- | --- | --- | --- | --- | --- | --- | --- |
| NCI-H838 | 1.06 | 1.06 | 1.03 | 1.06 | 1.06 | 0.781 | 0.886 | 0.827 | 0.794 | 1.01 | 0.232 | 0.263 | 0.249 | 0.209 | 0.235 | 0.739 | 0.759 | 0.671 | 0.669 | 0.874 |
| NCI-H1755 | 1.11 | 1.04 | 0.993 | 1.02 | 1.05 | 0.83 | 0.768 | 0.767 | 0.323 | 0.428 | 0.575 | 0.4 | 0.539 | 0.512 | 0.418 | 0.867 | 0.769 | 0.648 | 0.493 | 0.448 |
| HCC-78 | 0.571 | 0.483 | 0.553 | 0.537 | 0.437 | 0.342 | 0.325 | 0.322 | 0.321 | 0.322 | 0.93 | 0.879 | 0.903 | 0.917 | 0.915 | 0.847 | 0.731 | 0.749 | 0.79 | 0.592 |
| IA-LM | 0.632 | 0.581 | 0.436 | 0.4 | 0.694 | 0.898 | 0.767 | 0.813 | 0.465 | 0.357 |  |  |  |  |  | 0.883 | 0.886 | 0.839 | 0.392 | 0.396 |
| NCI-H322M | 1 | 1.03 |  | 0.959 | 0.976 | 0.917 | 0.93 | 0.859 | 0.917 | 0.585 | 0.576 | 0.583 | 0.622 | 0.645 | 0.628 | 0.667 | 0.757 | 0.729 | 0.469 | 0.655 |
| NCI-H3122 | 1.03 | 0.953 | 0.872 | 1.06 | 0.994 | 0.292 | 0.241 | 0.28 |  | 0.237 | 0.182 | 0.201 | 0.197 | 0.178 | 0.2 | 0.597 | 0.614 | 0.557 | 0.407 | 0.367 |
| COR-L23 | 1.04 | 0.872 | 1.04 | 0.899 | 0.876 | 0.679 | 0.578 | 0.771 | 0.589 | 0.564 | 0.206 | 0.208 | 0.213 | 0.192 | 0.186 | 0.316 | 0.324 | 0.386 | 0.313 | 0.289 |
| NCI-H1793 | 0.977 | 0.822 |  | 1.01 | 1.17 |  |  |  |  |  | 0.864 | 0.831 | 0.616 | 0.419 | 0.431 | 0.814 | 0.73 | 0.547 | 0.316 | 0.285 |
| ChaGo-K-1 |  |  |  |  |  |  | 1.11 | 1.11 | 0.714 | 0.43 | 0.277 | 0.261 | 0.372 | 0.257 | 0.254 | 0.401 | 0.269 | 0.258 | 0.168 | 0.257 |
| NCI-H522 |  |  |  |  |  |  |  |  |  |  | 0.971 | 0.857 | 1.04 | 0.933 | 0.98 | 0.595 | 0.665 | 0.65 | 0.458 | 0.477 |
| NCI-H1299 | 1.06 | 1.01 | 0.996 | 0.974 | 0.991 | 0.898 | 0.947 | 0.905 | 0.866 | 0.716 |  |  |  |  |  | 0.953 | 0.91 | 0.869 | 0.787 | 0.57 |
| NCI-H1650 |  |  |  |  |  | 0.914 | 1.09 | 0.927 | 0.944 | 0.879 | 0.374 | 0.328 | 0.371 | 0.343 | 0.264 | 0.692 | 0.781 | 0.802 | 0.671 | 0.419 |
| NCI-H1648 |  |  |  |  |  |  |  |  |  |  |  | 0.714 | 0.624 | 0.554 | 0.476 |  | 0.744 | 0.633 | 0.399 | 0.425 |
| NCI-H727 | 0.297 | 0.292 |  |  | 0.395 | 1.01 | 0.638 | 0.665 | 0.427 | 0.439 |  |  |  |  |  | 0.598 | 0.725 | 0.679 | 0.484 | 0.726 |
| NCI-H2342 |  |  |  |  |  |  |  |  |  |  | 0.789 | 0.752 | 0.835 | 0.516 | 0.641 | 0.621 | 0.445 | 0.416 | 0.236 | 0.334 |
| SW 900 |  |  |  |  |  |  |  |  |  |  | 0.461 | 0.51 | 0.485 | 0.324 | 0.41 | 1.03 | 0.892 | 0.861 | 0.691 | 0.459 |
| NCI-H1395 | 1.16 | 1.28 | 1.02 | 1 | 0.521 |  |  |  |  |  | 0.853 | 0.925 | 0.886 | 0.705 | 0.518 | 0.445 | 0.442 | 0.443 | 0.478 | 0.399 |
| A549 | 0.664 | 0.587 | 0.484 | 0.649 | 0.622 | 0.807 | 0.757 | 0.764 | 0.578 | 0.306 |  |  |  |  |  | 0.208 | 0.382 | 0.269 | 0.141 | 0.147 |
| NCI-H2170 |  |  |  |  |  | 1.13 | 1.16 | 1.16 | 1.22 | 1.22 | 0.231 | 0.288 | 0.248 | 0.266 | 0.284 | 0.641 | 0.571 | 0.544 | 0.469 | 0.352 |
| NCI-H1563 | 1.08 | 1.15 | 1.17 | 1.07 | 0.83 | 0.835 | 0.786 | 0.77 | 0.68 | 0.704 | 0.827 | 0.641 | 0.627 | 0.393 | 0.602 |  |  |  |  |  |
| ABC-1 | 0.649 | 0.652 | 0.788 | 0.726 | 0.721 | 0.926 | 1 | 0.817 | 0.69 | 0.475 |  |  |  |  |  | 0.627 | 0.689 | 0.982 | 0.702 | 0.573 |
